From ChEMBL document CHEMBL1250421, “Synthesis of 5-deoxy-beta-D-galactofuranosides as tools for the characterization of beta-D-galactofuranosidases” (Bioorg Med Chem, 2010) come the findings set out here.

For one assay, the system named is Penicillium fellutanum. Put plainly: Activity of Penicillium fellutanum exo-beta-D-galactofuranosidase by spectrophotometry.
Usually Km stands for the substrate concentration at which the rate is half of its maximum. Turning to `OC[C@@H](O)[C@@H]1O[C@@H](OCc2ccccc2)[C@H](O)[C@H]1O`, the Michaelis-Menten constant (Km) is 3700 µM. On the same count and under the same terms, with `O=[N+]([O-])c1ccc(O[C@@H]2O[C@@H]([C@H](O)CO)[C@H](O)[C@H]2O)cc1` the figure was 310 µM; with `CO[C@@H]1O[C@@H]([C@H](O)CO)[C@H](O)[C@H]1O`, 2600 µM.

Molecular target in a further assay: not listed separately
As to the kind of experiment: Inhibition of Penicillium fellutanum exo-beta-D-galactofuranosidase by spectrophotometry.
A word on the IC50: it is the concentration at which inhibition is half-maximal. Higher therefore signals a need for much substance. As for `Nc1ccc(S[C@@H]2O[C@@H]([C@H](O)CO)[C@H](O)[C@H]2O)cc1`, it took 80 µM to reach half-maximal inhibition (IC50). Same read-out and setting: with `O=[N+]([O-])c1ccc(S[C@@H]2O[C@@H]([C@H](O)CO)[C@H](O)[C@H]2O)cc1` the figure was 600 µM; with `OC[C@@H](O)[C@@H]1O[C@@H](n2cc[nH]c2=S)[C@H](O)[C@H]1O`, 1050 µM. The same measure, in the same setting: the same measure for `O=C1O[C@@H]([C@H](O)CO)[C@H](O)[C@H]1O`: 20 µM; for `CO[C@H]1CNC(=S)N1[C@@H]1O[C@@H]([C@H](O)CO)[C@H](O)[C@H]1O`: 100 µM.
